The values below come from patent publication US20220144815A1, “1,3,4-OXADIAZOLES AND THEIR DERIVATIVES AS NEW ANTIFUNGAL AGENTS” (Bayer Aktiengesellschaft, priority 2018, published 2022).

Where two headings read alike, the source gives them in different places. A value given as a limit tells only on which side of the number the result lay.

The term inhibition denotes the change of the read-out against control, counted positive when it falls. In general, inhibition of growth refers to the relative decrease from the control value, in per cent.

One data set deals with Phakosporra pachirrhizi. The experiment in a line: Example A: fungicidal activity, spore germination in 96-well plates. The format is cell-based. Particulars: 4 hours at 21° C., read-out: efficacy (inhibition of the fungal germination); for inhibition at 20 ppm: 20 ppm of active ingredient; for inhibition at 30 ppm: 30 ppm of active ingredient. The protocol:
Cryo-conserved wild-type spores of the biotroph Phakosporra pachirrhizi were humidified in dedicated chamber overnight at 18° C. in the dark. The next day, a solution of spores at 7×10^3 sp/mL was prepared in a water based growth medium (H2O+0.2 mM MOPS at pH 7+0.01% Tween 20) and spores were distributed in a 96-MTPS (final volume of 200 μL per well) thanks to a dispenser robot. Each molecule was tested at 10 doses (from 30 to 0.002 ppm final concentration) and accordingly 1.2 μL of each dilution was transferred in dedicated well to end-up with a final concentration of 0.6% DMSO. Wild-type spores and molecules were incubated for 4 hours at 21° C., and 6 images par well were then acquired with Transmitted Light images (Image Xpress Micro microscope, Molecular Devices, Objective 10×, 6 images per well). Detection and quantification of the number of germinated spores per image was performed with a dedicated in-house developed algorithm (MetaXpress software, Molecular Devices).

A further data set concerns Puccinia recondita. The data set is described as follows: Example D: in vivo preventive test (brown rust on wheat). Particulars: 264 h, 500 ppm of tested compound, preventive spray, evaluated 11 days after inoculation, read-out: efficacy. How it is done: Solvent: 5% by volume of dimethyl sulfoxide • 10% by volume of acetone Emulsifier: 1 μL of Tween® 80 per mg of active ingredient The tested compounds were made soluble and homogenized in a mixture of dimethyl sulfoxide/acetone/Tween® 80 and then diluted in water to the desired concentration. The young plants of wheat were treated by spraying the tested compound prepared as described above. Control plants were treated only with an aqueous solution of acetone/dimethyl sulfoxide/Tween® 80. After 24 hours, the plants were contaminated by spraying the leaves with an aqueous suspension of Puccinia recondita spores. The contaminated wheat plants were incubated for 24 hours at 20° C. and at 100% relative humidity and then for 10 days at 20° C. and at 70-80% relative humidity. The test was evaluated 11 days after the inoculation. 0% means an efficacy which corresponds to that of the control plants while an efficacy of 100% means that no disease was observed.

The next data set deals with Phakopsora pachyrhizi. The data set is described as follows: Example F: in vivo preventive test (soybeans), DMSO/acetone/Tween 80. Particulars: 288 h, 500 ppm of tested compound, preventive spray, soybean, evaluated 12 days after inoculation, read-out: efficacy. In outline:
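Compounds in DMSO/acetone/Tween 80, diluted in water, were sprayed preventively onto young plants, which were spore-inoculated 24 h later. Plants were held 24 h at 24 °C and 100% RH, then 11 days at 24 °C and 70–80% RH. Scored 12 days post-inoculation: 0% = control-level disease, 100% = no disease.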

Data set [1] concerns Colletotrichum lindemuthianum. The experiment in a line: Example B: in vitro cell test, spore germination and mycelium growth in liquid culture. The class given is cell-based. Particulars: 144 h, 20 ppm of tested compound, 6 days incubation, read-out: efficacy (inhibition of fungal growth). The gist of the method: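 Compounds in DMSO (final ≤1%) added to glucose/peptone/yeast extract liquid medium containing C. lindemuthianum spores. After 6 days incubation, mycelium growth measured spectrometrically; inhibition calculated from absorbance versus compound-free control wells.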

Data set [2] in a line: Log P by HPLC on reversed phase columns, method [a] (EEC directive 79/831 Annex V.A8). The format is physicochemical. Particulars: reversed phase HPLC column. In outline: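 Log P calibrated with C3–C16 straight-chain alkan-2-ones of known Log P, interpolating linearly between retention times. Method per EEC 79/831 Annex V.A8: reversed-phase LC-UV in the acidic range, water/0.1% formic acid and acetonitrile gradient from 10% to 95% acetonitrile.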

A further data set has as its system Botrytis cinerea. The data set is described as follows: Example C: in vivo preventive test (grey mould) on gherkin or cabbage. Particulars: 500 ppm of active ingredient, preventive spray, evaluated 4 to 5 days after inoculation, read-out: efficacy. The protocol: Solvent: 5% by volume of dimethyl sulfoxide • 10% by volume of acetone Emulsifier: 1 μl of Tween® 80 per mg of active ingredient The tested compounds were made soluble and homogenized in a mixture of dimethyl sulfoxide/acetone/Tween® 80 and then diluted in water to the desired concentration. The young plants of gherkin or cabbage were treated by spraying the tested compound prepared as described above. Control plants were treated only with an aqueous solution of acetone/dimethyl sulfoxide/Tween® 80. After 24 hours, the plants were contaminated by spraying the leaves with an aqueous suspension of Botrytis cinerea spores. The contaminated gherkin plants were incubated for 4 to 5 days at 17° C. and at 90% relative humidity. The contaminated cabbage plants were incubated for 4 to 5 days at 20° C. and at 100% relative humidity. The test was evaluated 4 to 5 days after the inoculation. 0% means an efficacy which corresponds to that of the control plants while an efficacy of 100% means that no disease was observed.

For a further data set, the system named is Alternaria brassicae. The data set is described as follows: Example E: in vivo preventive test (cabbage). Particulars: 144 h, 500 ppm of tested compound, preventive spray, evaluated 6 days after inoculation, read-out: efficacy. In outline:
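Young cabbage plants sprayed with compound in DMSO/acetone/Tween 80 diluted in water, then inoculated 24 hours later with Alternaria brassicae spore suspension. Kept 6 days at 20° C., 100% relative humidity. Efficacy scored 6 days post-inoculation: 0% as solvent-treated controls, 100% no disease.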

The mark [3] stands for this setting: method [a], HPLC on reversed phase columns, read-out: logP.
Where [4] appears, read: Method A: LC-UV, acidic range, 0.1% formic acid in water and acetonitrile, read-out: Log P.
The mark [5] stands for this setting: log P determined according to method [a] (HPLC on reversed phase columns), read-out: logP.

In the case of `O=C(Nc1ccc(F)cc1F)c1ccc(-c2nnc(C(F)F)o2)cc1` [I.027, 4-[5-(difluoromethyl)-1,3,4-oxadiazol-2-yl]-N-(2,4-difluorophenyl)benzamide], in the data set with Phakosporra pachirrhizi (4 ppm of active ingredient), the inhibition at 4 ppm is no less than 70%.

As to `Fc1ccc(C(Nc2ncc(-c3nnc(C(F)F)o3)cn2)C(F)(F)F)cc1` (racemic) [I.181, 5-[5-(difluoromethyl)-1,3,4-oxadiazol-2-yl]-N-[(1RS)-2,2,2-trifluoro-1-(4-fluorophenyl)ethyl]pyrimidin-2-amine], the pest or weed control at 500 µg/mL in the data set on Puccinia recondita and with Phakopsora pachyrhizi was 90 to 100% throughout. Further, the inhibition of growth at 20 µg/mL in data set [1] is 80 to 89%. For the same compound, the chromatographic logP in data set [2] (setting [3]) was 3.22. Moreover, the pest or weed control at 500 ppm in the data set on Botrytis cinerea lay in the range of 70 to 79%.

For the compound `O=C(O)c1ccc(-c2nnc(C(F)(F)F)s2)cc1` [I.008, 4-[5-(trifluoromethyl)-1,3,4-thiadiazol-2-yl]benzoic acid], in data set [2] (setting [4]), the chromatographic logP was 1.41. Moreover, the inhibition at 20 ppm in the data set on Phakosporra pachirrhizi is no less than 70%.

Consider `CCc1noc(-c2ccc(-c3nnc(C(F)(F)F)o3)cc2)n1` [I.018, 3-ethyl-5-{4-[5-(trifluoromethyl)-1,3,4-oxadiazol-2-yl]phenyl}-1,2,4-oxadiazole], for which the chromatographic logP in data set [2] (setting [4]) stood at 3.59. Further, the inhibition at 30 ppm in the data set with Phakosporra pachirrhizi was no less than 70%.

Turning to `O=C(O)c1ccc(-c2nnc(C(F)(F)F)o2)cc1` [I.004, 4-[5-(trifluoromethyl)-1,3,4-oxadiazol-2-yl]benzoic acid], the inhibition at 30 ppm with Phakosporra pachirrhizi was no less than 70%.

Consider `FC(F)c1nnc(-c2cnc(N[C@@H]3C[C@H]3c3ccccc3)nc2)o1` (racemic) [I.196, 5-[5-(difluoromethyl)-1,3,4-oxadiazol-2-yl]-N-[rac-(1R,2S)-2-phenylcyclopropyl]pyrimidin-2-amine], for which the pest or weed control at 500 µg/mL in the data set on Alternaria brassicae and in the data set with Phakopsora pachyrhizi was 90 to 100% in each case. Also, the inhibition of growth at 20 µg/mL in data set [1] was in the range of 70 to 79%. In data set [2] (setting [3]), the chromatographic logP came out at 2.94. The pest or weed control at 500 ppm in the data set with Botrytis cinerea is 90 to 100%.

Take `FC(F)c1nnc(-c2cnc(NC3(c4ccccc4)CCC3)nc2)o1` [I.134, 5-[5-(difluoromethyl)-1,3,4-oxadiazol-2-yl]-N-(1-phenylcyclobutyl)pyrimidin-2-amine]: the pest or weed control at 500 µg/mL with Puccinia recondita lay in the range of 70 to 79%; in the data set with Phakopsora pachyrhizi it was 90 to 100%. The inhibition of growth at 20 µg/mL in data set [1] lay within 90 to 100%. In data set [2] (setting [4]), the chromatographic logP worked out at 3.18. Moreover, the inhibition at 20 ppm in the data set with Phakosporra pachirrhizi is no less than 70%.

Turning to `Fc1ccccc1C1(Nc2ncc(-c3nnc(C(F)F)o3)cn2)CC1` [I.144, 5-[5-(difluoromethyl)-1,3,4-oxadiazol-2-yl]-N-[1-(2-fluorophenyl)cyclopropyl]pyrimidin-2-amine], the pest or weed control at 500 µg/mL in the data set with Puccinia recondita and in the data set on Phakopsora pachyrhizi was 90 to 100% each time. Besides, the inhibition of growth at 20 µg/mL in data set [1] is 90 to 100%. Also, the chromatographic logP in data set [2] (setting [5]) amounted to 2.85. Further, the inhibition at 20 ppm in the data set on Phakosporra pachirrhizi is no less than 70%.

In the case of `FC(F)(F)c1nnc(-c2cnc(NC3(c4ccccc4)CCC3)nc2)o1` [I.160, N-(1-phenylcyclobutyl)-5-[5-(trifluoromethyl)-1,3,4-oxadiazol-2-yl]pyrimidin-2-amine], the pest or weed control at 500 µg/mL in the data set on Phakopsora pachyrhizi fell in the range of 90 to 100%. Further, the inhibition of growth at 20 µg/mL in data set [1] is 80 to 89%. In data set [2] (setting [5]), the chromatographic logP worked out at 3.84. The inhibition at 20 ppm with Phakosporra pachirrhizi is no less than 70%.

As to `FC(F)c1nnc(-c2cnc(NCC3(c4ccccc4)CC3)nc2)o1` [I.135, 5-[5-(difluoromethyl)-1,3,4-oxadiazol-2-yl]-N-[(1-phenylcyclopropyl)methyl]pyrimidin-2-amine], the pest or weed control at 500 µg/mL with Alternaria brassicae was in the range of 90 to 100%. In addition, the inhibition of growth at 20 µg/mL in data set [1] fell in the range of 80 to 89%. Further, in data set [2] (setting [5]), the chromatographic logP was 3.25. For the same compound, in the data set on Botrytis cinerea, the pest or weed control at 500 ppm is 70 to 79%.

Regarding `Fc1ccc(C2(Nc3ncc(-c4nnc(C(F)F)o4)cn3)CC2)cc1` [I.146, 5-[5-(difluoromethyl)-1,3,4-oxadiazol-2-yl]-N-[1-(4-fluorophenyl)cyclopropyl]pyrimidin-2-amine], the pest or weed control at 500 µg/mL with Alternaria brassicae, in the data set on Puccinia recondita and in the data set on Phakopsora pachyrhizi was 90 to 100% in each case. In addition, the inhibition of growth at 20 µg/mL in data set [1] was 70 to 79%. Also, the chromatographic logP in data set [2] (setting [5]) came out at 2.75. Moreover, the pest or weed control at 500 ppm in the data set on Botrytis cinerea fell in the range of 90 to 100%.
